The record followed here is patent US20220104486A1 (priority 2019, published 2022).

The subject of this assay is Fusarium graminearum. In kind it is in vivo. Particulars: seed treatment 0.3 mg ai/seed.
Where [1] appears, read: corn, 36 days after planting, F. graminearum inoculum in furrow.

Like-named read-outs stand apart in the source and are kept apart here.

With `O=C(NCCc1ncc(C(F)(F)F)cc1Cl)c1ccccc1C(F)(F)F` [Fluopyram], the “Count plant number per 12 row meter” value (corn (Zea mays, variety N29t), plant stand 36 days after planting, F. graminearum inoculum in furrow, on base treatment) was 54.58, B per 12 row meter. In addition, the “efficacy against Fusarium graminearum, in words” value (corn field trial, high disease pressure) is listed as “moderate control”. Under setting [1], the “% efficacy based on loss of plants due to disease” value came to 49.95% and the “% loss of plants due to disease based on a maximum of 60 plants per 12 row meters” value is reported as 9.03%. The “% loss of plants due to disease based on a maximum of 60 plants per 12 row meters” value (corn, 36 days after planting, F. graminearum inoculum in furrow, listed as commercial standard) came out at 9%.
